{"source": "paper PMC4869175", "about": "“Evidence that phytochrome functions as a protein kinase in plant light signalling” (Nature Communications, 2016)", "molecular_target": "T1, FL-AsphyA (Avena sativa, UniProt P06593)", "T1 construct": "Full-length phytochrome genes of AsPHYA; made in house; host or cells: Pichia pastoris GS115", "T1 sequence (P06593 1-1129)": "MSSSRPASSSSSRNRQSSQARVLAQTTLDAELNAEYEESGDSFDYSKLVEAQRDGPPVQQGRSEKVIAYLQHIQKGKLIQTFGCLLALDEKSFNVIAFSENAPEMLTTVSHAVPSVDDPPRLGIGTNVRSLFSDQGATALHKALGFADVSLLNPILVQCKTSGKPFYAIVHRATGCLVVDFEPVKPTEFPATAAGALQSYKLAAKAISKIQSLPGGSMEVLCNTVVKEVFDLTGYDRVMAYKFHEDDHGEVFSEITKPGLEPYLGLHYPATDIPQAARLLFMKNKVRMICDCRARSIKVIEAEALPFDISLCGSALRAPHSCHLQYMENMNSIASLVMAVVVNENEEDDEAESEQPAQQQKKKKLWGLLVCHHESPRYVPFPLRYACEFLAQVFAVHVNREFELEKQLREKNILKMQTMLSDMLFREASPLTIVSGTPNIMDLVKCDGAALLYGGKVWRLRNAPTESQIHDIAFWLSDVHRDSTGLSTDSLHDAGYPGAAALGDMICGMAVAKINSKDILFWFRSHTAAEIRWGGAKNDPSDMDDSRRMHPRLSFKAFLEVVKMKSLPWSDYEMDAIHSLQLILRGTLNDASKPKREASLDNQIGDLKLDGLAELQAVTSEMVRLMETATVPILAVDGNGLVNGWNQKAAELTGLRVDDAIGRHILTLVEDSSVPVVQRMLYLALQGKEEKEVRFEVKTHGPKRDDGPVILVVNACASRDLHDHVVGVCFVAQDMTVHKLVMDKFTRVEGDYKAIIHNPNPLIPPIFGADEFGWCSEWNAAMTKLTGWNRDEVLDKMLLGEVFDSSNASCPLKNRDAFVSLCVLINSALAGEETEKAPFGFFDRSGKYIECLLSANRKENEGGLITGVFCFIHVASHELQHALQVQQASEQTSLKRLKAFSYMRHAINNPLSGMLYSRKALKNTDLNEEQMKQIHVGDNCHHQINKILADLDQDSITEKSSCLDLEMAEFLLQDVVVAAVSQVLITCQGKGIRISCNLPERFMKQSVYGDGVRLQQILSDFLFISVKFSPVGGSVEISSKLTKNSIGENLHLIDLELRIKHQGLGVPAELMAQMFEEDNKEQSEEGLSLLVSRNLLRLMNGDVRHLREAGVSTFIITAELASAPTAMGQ", "assay": "Autophosphorylation and kinase activity assays of 8-azido-ATP-labelled AsphyA", "assay_type": "biochemical", "details": "Pfr form of FL-AsphyA, 8-azido-ATP labeling buffer", "procedure": "For autophosphorylation assays, reaction mixtures (20 μl) contained kinase buffer (25 mM Tris-HCl, pH 7.8, 0.2 mM EDTA, 4 mM DTT and 5 mM MgCl2) and purified recombinant phytochromes (0.5–1.0 μg) in either Pr or Pfr forms. Phytochrome samples were irradiated with red or far-red light for 15 min before the start of the reaction. Because histone H1 is known to stimulate phytochrome autophosphorylation activity, the same amount of histone H1 (0.5–1.0 μg) was added to the phytochrome samples in the indicated experiments. The conditions for kinase assays were similar to those of phytochrome autophosphorylation experiments, except for addition of a substrate (0.5–1.0 μg). Reactions were started by adding 150 μM ATP containing 10 μCi of (γ-^32P) ATP and incubated at 30 °C for 1 h. […] To verify the proteins loaded, Coomassie blue protein staining and zinc-fluorescence assay were performed before drying. For quantification of the phosphorylation, dried gels were exposed to Fuji imaging plates, and the relative signals of phyA autophosphorylation and PIF3 phosphorylation by phyA were quantitated with a Typhoon FLA 7000 phosphor-imager (GE Healthcare).\nSupplementary Figure 11. […] 8-azido-ATP labeled proteins were then detected using avidin-HRP. […] The band intensities were quantified using ImageJ software, and the percentages of 8-azido-ATP labeling were normalized to the 66-610 protein signals. […]", "data": [{"substance": "8-N3-ATP-biotin-long chain-hydrazone [8-azido-ATP]", "values": [{"measurement": "autophosphorylation of 8-azido-ATP-labelled AsphyA", "result": "little autophosphorylation"}, {"measurement": "kinase activity (PIF3) of 8-azido-ATP-labelled AsphyA", "result": "significantly reduced kinase activity"}]}]}
